These molecules were tested against T1, Neutrophil elastase (Homo sapiens, UniProt P08246) (assay: Tested for inhibitory activity against human leukocyte elastase(HLE) enzyme).
T1 sequence (P08246 whole entry): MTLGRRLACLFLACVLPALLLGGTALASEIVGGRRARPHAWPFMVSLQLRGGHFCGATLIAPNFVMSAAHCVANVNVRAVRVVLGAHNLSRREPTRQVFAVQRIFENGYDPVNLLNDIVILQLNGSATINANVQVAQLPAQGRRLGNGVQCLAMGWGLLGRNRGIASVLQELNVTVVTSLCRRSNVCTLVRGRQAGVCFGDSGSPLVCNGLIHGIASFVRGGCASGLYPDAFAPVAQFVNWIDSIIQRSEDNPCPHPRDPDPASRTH

Row | Ki [nM] | SMILES
1 | 66 | CC(C)C(NC(=O)Cn1c(Cc2ccccc2)ccc(NC(=O)OCc2ccccc2)c1=O)C(=O)C(F)(F)F (stereo not drawn)
2 | 4.4 | CC(C)C(NC(=O)Cn1c(-c2cccc(OC(C)(C)C)c2)ccc(NC(=O)OCc2ccccc2)c1=O)C(=O)C(F)(F)F (stereo not drawn)
3 | 6.6 | CC(C)C(NC(=O)Cn1c(-c2ccc(Cl)cc2)ccc(NC(=O)OCc2ccccc2)c1=O)C(=O)C(F)(F)F (stereo not drawn)
4 | 320 | CC(C)C(NC(=O)Cn1ccc(-c2ccccc2)c(NC(=O)OCc2ccccc2)c1=O)C(=O)C(F)(F)F (stereo not drawn)
5 | 32 | CC(C)C(NC(=O)Cn1c(-c2cccc(C(=O)O)c2)ccc(NC(=O)OCc2ccccc2)c1=O)C(=O)C(F)(F)F (stereo not drawn)
6 | 9.1 | CC(C)C(NC(=O)Cn1c(-c2cccnc2)ccc(NC(=O)OCc2ccccc2)c1=O)C(=O)C(F)(F)F (stereo not drawn)
7 | 31 | Cc1ccc(-c2ccc(NC(=O)OCc3ccccc3)c(=O)n2CC(=O)NC(C(=O)C(F)(F)F)C(C)C)cc1 (stereo not drawn)
8 | 11 | CC(C)C(NC(=O)Cn1c(-c2ccccc2Cl)ccc(NC(=O)OCc2ccccc2)c1=O)C(=O)C(F)(F)F (stereo not drawn)

Source: ChEMBL document CHEMBL1127353, “Nonpeptidic inhibitors of human leukocyte elastase. 2. Design, synthesis, and in vitro activity of a series of 3-amino-6-arylopyridin-2-one trifluoromethyl ketones” (J Med Chem, 1994)
